The record followed here is patent US20080188469A1, “VACCINATION” (Glaxo Group Limited, priority 2002, published 2008).

For this experiment, the system named is antigen specific cytokine producing cells in splenocytes. Kind of experiment: Imiquimod given with particle-mediated DNA vaccination (pVAC1.ova.cyt) of mice; cytokine producing splenocytes by ELISPOT. It is filed as in vivo, C57B1/6 mice. To be noted: imiquimod 30 mg/kg, single subcutaneous injection at the immunisation site, immediately following vaccination.

Each structure is given as a SMILES string.

Experimental: To examine whether the timing of imiquimod administration could affect the numbers of antigen specific cytokine producing cells in splenocytes pVAC1.ova.cyt (prepared according to example 1) was administered by particle mediated gene transfer (0.05 μg/cartridge) into the skin of mice.
If given, immediately following vaccination imiquimod (prepared as a suspension in vehicle which comprised 0.3% (w/v) methylcellulose and 0.1% (v/v) Tween in sterile water) was administered by a single subcutaneous injection (0.05 ml/10 g body weight formulated to provide a dose of 30 mg/kg)) at the immunisation site. Plasmid and imiquimod controls were empty vector (pVAC1) and vehicle, respectively.
All mice received pVAC1. ova.cyt or empty vehicle pVAC1 at day 0 and week 4. One group of mice received imiquimod at day 0 only (Im prime), a second group of mice received imiquimod at week 4 only (Im boost) and another group received imiquimod at day 0 and week 4 (Im pr+boost).
At day 12 spl enocytes were collected and IFN-γ and IL-2 producing cells were measured by ELISPOT.

In the case of `CC(C)Cn1cnc2c(N)nc3ccccc3c21` [Imiquimod, imiquimod], the “Magnitude of the cytotoxic T cell response to a nucleic acid vaccine” value is “Increases the Magnitude of the Cytotoxic T Cell Response”.
